# Reference: patent US20060019966A1, “Method for treating nervous system disorders and conditions” (Wyeth, priority 2004, published 2006)
# Experiments:
# hSERT = molecular target: T1, hSERT (Homo sapiens, UniProt P31645); assay: Serotonin (5-HT) uptake assay, hSERT function uptake; type: cell-based; settings: JAR cells, [3H]5-HT uptake
# T1 construct: The methods for 5-HT functional reuptake using the JAR cell line; host or cells: JAR (human placental choriocarcinoma), staurosporine-stimulated
# Description: (§1) The JAR cell line (human placental choriocarcinoma) may be purchased from ATCC (Cat. No. HTB-144). […] For all assays, cells may be plated in Wallac 96-well sterile plates (PerkinElmer, Cat. No. 3983498).
# The methods for 5-HT functional reuptake using the JAR cell line is modified using a previous literature report (Prasad, et al., Placenta, 1996. 17(4): 201-7). […] On day 2, cells are stimulated with staurosporine (40 nM) to increase the expression of the 5-HT transporter. On day 3, cells are removed from the cell incubator two hours prior to assay and maintained at room temperature to equilibrate the growth medium to ambient oxygen concentration. […] Data from these wells are used to define non-specific 5-HT uptake (minimum 5-HT uptake). Test compounds are prepared in DMSO (10 mM) and diluted in assay buffer according to test range (1 to 1,000 nM). Twenty-five microliters of assay buffer (maximum 5-HT uptake) or test compound are added directly to triplicate wells containing cells in 200 μl of assay buffer. The cells are incubated with the compound for 10 minutes (37° C.). To initiate the reaction, [^3H]hydroxytryptamine creatinine sulfate diluted in assay buffer is delivered in 25 μl aliquots to each well for a final test concentration of 15 nM. The cells are incubated with the reaction mixture for 5 minutes at 37° C. The 5-HT uptake reaction is terminated by decanting the assay buffer.
# [1] = test system: tail skin temperature (TST) in ovariectomized (OVX) rats; assay: Telemetry rat model of ovariectomy-induced thermoregulatory dysfunction; type: in vivo; settings: 30 mg/kg, sc, single dose
# Excerpt: Telemetry model: This model has been modified from a previously reported protocol describing estrogen regulation of diurnal tail skin temperature (TST) patterns (Berendsen, et al., European Journal of Pharmacology, 2001, 419(1): 47-54). […] In ovariectomized (OVX) rats, TST is elevated over the entire 24-hour period, thus the usual decrease in TST during the active (dark) phase is lost, thus, a compound's ability to restore this lowering of TST during the active phase was examined. […] After a 7-day recovery period, TST readings were continuously recorded for the remainder of the study. Tail skin temperature readings were collected from each animal every 5 minutes with values obtained over a 10 second sampling period. The day before test day, an average baseline TST value was calculated for each animal by averaging temperature readings recorded during the 12 hour active (dark) phase. […]
# Statistical analysis: Evaluation of a compound's ability to restore normal lowering of TST in the telemetry model was analyzed using hourly TST values calculated for each animal by averaging the 12 temperature readings obtained every 5 minutes over that recording time. […]
# [2] = molecular target: T2, recombinant human dopamine transporter (hDAT) (Homo sapiens, UniProt Q01959); assay: Dopamine uptake transporter binding assay (3H-WIN 35,428); settings: inhibition of 3H-WIN 35,428 binding to hDAT membranes
# T2 construct: purchased PerkinElmer RBHDATM
# hNET = molecular target: T3, hNET (Homo sapiens, UniProt P23975); assay: Norepinephrine (NE) uptake assay, hNET function uptake; type: cell-based; settings: MDCK-Net6 cells, [3H]NE uptake
# T3 construct: expressed in transfected cells; host or cells: MDCK-Net6 (MDCK cells stably transfected with hNET)
# Description: as §1
# Test compounds are prepared in DMSO (10 mM) and diluted in assay buffer according to test range (1 to 10,000 nM). Twenty-five microliters of assay buffer (maximum NE uptake) or test compound are added directly to triplicate wells containing cells in 200 μl of assay buffer. […] To initiate the NE uptake, [^3H]NE diluted in assay buffer (120 nM final assay concentration) is delivered in 25 μl aliquots to each well and the plates is incubated for 5 minutes (37° C.).
# T2 sequence (Q01959 whole entry): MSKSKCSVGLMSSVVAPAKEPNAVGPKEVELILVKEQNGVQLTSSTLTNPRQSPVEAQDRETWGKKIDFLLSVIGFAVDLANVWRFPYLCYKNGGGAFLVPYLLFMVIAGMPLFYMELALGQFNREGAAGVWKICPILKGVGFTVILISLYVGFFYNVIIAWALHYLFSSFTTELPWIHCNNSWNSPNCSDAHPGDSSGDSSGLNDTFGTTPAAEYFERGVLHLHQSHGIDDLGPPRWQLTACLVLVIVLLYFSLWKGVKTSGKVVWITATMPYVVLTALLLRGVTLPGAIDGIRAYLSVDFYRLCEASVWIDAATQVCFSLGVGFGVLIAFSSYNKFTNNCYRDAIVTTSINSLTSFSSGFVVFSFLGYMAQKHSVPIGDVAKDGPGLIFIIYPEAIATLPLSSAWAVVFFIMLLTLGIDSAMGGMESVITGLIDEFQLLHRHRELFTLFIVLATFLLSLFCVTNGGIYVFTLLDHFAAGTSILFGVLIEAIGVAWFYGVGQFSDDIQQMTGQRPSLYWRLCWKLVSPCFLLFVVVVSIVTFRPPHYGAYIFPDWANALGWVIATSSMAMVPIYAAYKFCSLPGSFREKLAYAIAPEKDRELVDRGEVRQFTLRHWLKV
# T3 sequence (P23975 whole entry): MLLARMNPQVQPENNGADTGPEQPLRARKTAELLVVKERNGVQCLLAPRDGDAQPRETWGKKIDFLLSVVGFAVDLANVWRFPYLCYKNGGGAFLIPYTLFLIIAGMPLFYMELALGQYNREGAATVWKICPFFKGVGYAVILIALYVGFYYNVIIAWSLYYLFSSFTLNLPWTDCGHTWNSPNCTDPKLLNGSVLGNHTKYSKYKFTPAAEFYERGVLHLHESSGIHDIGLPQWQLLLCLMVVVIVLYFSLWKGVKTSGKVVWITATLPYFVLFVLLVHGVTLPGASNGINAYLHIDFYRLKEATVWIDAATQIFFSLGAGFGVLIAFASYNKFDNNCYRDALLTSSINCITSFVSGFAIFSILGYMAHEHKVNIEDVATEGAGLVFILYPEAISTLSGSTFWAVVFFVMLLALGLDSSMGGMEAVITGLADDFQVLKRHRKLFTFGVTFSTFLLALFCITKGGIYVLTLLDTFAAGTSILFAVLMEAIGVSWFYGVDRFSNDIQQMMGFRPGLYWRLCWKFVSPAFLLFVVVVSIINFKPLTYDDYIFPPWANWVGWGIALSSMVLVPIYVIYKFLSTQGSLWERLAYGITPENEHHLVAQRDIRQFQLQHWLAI
# T1 sequence (P31645 whole entry): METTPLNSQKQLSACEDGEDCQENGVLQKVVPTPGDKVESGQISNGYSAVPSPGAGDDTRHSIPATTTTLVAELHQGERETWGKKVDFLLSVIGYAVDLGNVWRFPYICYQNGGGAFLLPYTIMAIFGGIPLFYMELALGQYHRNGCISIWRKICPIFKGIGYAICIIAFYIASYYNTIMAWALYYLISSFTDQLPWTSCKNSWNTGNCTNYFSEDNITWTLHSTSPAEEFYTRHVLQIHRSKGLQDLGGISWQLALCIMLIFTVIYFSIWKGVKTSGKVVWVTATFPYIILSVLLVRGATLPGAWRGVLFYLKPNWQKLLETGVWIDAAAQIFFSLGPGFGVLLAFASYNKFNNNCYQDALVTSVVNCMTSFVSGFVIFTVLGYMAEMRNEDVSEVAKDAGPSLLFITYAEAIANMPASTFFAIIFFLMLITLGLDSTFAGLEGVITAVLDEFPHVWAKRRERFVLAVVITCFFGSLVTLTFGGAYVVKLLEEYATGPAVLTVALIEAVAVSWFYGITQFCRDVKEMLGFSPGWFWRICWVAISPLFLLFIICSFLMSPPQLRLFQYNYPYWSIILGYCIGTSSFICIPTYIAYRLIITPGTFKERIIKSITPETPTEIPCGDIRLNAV
EC50 (hSERT),hDAT binding (% I at 10 μM) [2],EC50 (hNET),Compound,effect on tail skin temperature (TST) [1]
977 nM,55%,1180 nM,"Cc1ccc(C23CNCC2C3)cc1 (single isomer, unassigned; (-)) [(−)-1-(4-methylphenyl)-3-azabicyclo[3.1.0]hexane]",restored normal TST
–,–,–,"Fc1ccc(C(OCCN2CCN(CCCc3ccccc3)CC2)c2ccc(F)cc2)cc1 [1-[2-[bis(4-fluorophenyl)methoxy]ethyl]-4-(3-phenylpropyl)piperazine, reference compound]",restored normal TST
